These results are taken from patent US11345711B2, “8,9-dihydroimidazo[1,2-a]pyrimido[5,4-e]pyrimidin-5(6H)-ones” (IMPACT THERAPEUTICS (SHANGHAI), INC, priority 2016, dated 2022).

The subject of series [1] is NCI-H1299 cells. Description: MTT based cell viability assay on NCI-H1299 cells. To be noted: Homo sapiens, read-out: IC50, growth inhibition of NCI-H1299 cells. The gist of the method: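 Viability read-out was MTT reduction (0.5 mg/mL, 4 h, absorbance 552/630/690 nm) after 3-day compound exposure at 37 °C of NCI-H1299 cells seeded at 1000 per well. Dilutions spanned 10 μM–0.01 μM in DMSO, final DMSO 1‰. Survival-versus-concentration curves were fitted sigmoidally to give IC50.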

The target in series [2] is Wee1 (h) (Homo sapiens, UniProt P30291). Description: Wee1 kinase (h) detection method, [γ-33P]-ATP filter assay. Format: biochemical. To be noted: C 10 μm compound.
Series [3] has as its system advanced solid tumors. To be noted: cited from earlier work.
Series [4] relates to LoVo cells. Description: MTT based cell viability assay on LoVo cells. To be noted: Homo sapiens, LoVo, 72 h, 3 d, read-out: IC50, growth inhibition of LoVo cells. The essentials: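 Inhibition of LoVo proliferation was derived as IC50 from a sigmoidal dose-response fit of cell survival. Readout was MTT (0.5 mg/mL, 4 h) with absorbance at 552/630/690 nm, after 3-day treatment at 37 °C. Eight-point series from 10 μM to 0.01 μM, DMSO control, 1% DMSO final.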

Series [5] concerns the target T1, human Wee1 (amino acids M291 to K575) (Homo sapiens, UniProt P30291).
T1 construct: host or cells: E. coli BL21 infected with T7 phage
Description: Wee1 dissociation constant (Kd), KINOMEscan KdELECT competitive binding test. To be noted: 11-point 3-fold dilution. The protocol:
Determination of Wee1 Dissociation Constant (Kd)
The Wee1 dissociation constants (Kd) which measures the affinity of tested compound to Wee 1 have been determined in the KINOMEscan™ KdELECT Service at DiscoveRx. KINOMEscan™ assay is based on competitive binding test. The affinity index Kd for Wee1 is calculated by qPCR measurement of the compounds that compete with the immobilized ligand and bind to the enzyme activity center.
Wee1 kinase-tagged T7 phage strains were prepared in an E. coli BL21 strain. E. coli was grown to log-phase and infected with T7 phage and incubated with shaking at 32° C. until lysis. The lysates were centrifuged and filtered to remove cell debris. A partial length construct of human Wee1 (amino acids M291 to K575 based on reference sequence NP_003381.1) was expressed on the T7 phage coat. A short DNA sequence, embedded within the T7 phage genome, was used as amplicon for detection via qPCR. […]
Test compounds were prepared as 111× stocks in 100% DMSO. Kas were determined using an 11-point 3-fold compound dilution series with three DMSO control points. […] The kinase concentration in the eluates was measured by qPCR. qPCR reactions were assembled by adding 2.5 μL of kinase eluate to 7.5 μL of qPCR master mix containing 0.15 μM amplicon primers and 0.15 μM amplicon probe. […]
The constants (KdS) were calculated with a standard dose-response curve using the Hill equation: […]

Where [6] appears, read: AZD1775 alone or in combination with gemcitabine, cisplatin or carboplatin, 176 evaluable patients.

Like-named read-outs stand apart in the source and are kept apart here.

Wee1 (h), sequence (P30291 whole entry): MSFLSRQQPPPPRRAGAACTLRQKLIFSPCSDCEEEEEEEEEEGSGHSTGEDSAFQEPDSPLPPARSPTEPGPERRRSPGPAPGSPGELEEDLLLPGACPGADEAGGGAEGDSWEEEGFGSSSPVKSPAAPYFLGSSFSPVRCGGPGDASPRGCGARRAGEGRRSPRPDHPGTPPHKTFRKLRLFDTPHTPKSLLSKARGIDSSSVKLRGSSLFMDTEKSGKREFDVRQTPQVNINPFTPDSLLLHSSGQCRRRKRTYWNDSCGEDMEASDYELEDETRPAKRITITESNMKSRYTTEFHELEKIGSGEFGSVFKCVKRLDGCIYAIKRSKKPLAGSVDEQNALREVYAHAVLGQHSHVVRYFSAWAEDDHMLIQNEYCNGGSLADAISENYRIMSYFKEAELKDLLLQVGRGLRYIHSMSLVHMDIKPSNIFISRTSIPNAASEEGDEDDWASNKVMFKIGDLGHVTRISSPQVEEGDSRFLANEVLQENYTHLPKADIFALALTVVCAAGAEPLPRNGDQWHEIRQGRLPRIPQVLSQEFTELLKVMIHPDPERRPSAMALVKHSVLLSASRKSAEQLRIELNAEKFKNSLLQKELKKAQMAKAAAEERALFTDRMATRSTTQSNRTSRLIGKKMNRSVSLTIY
T1 sequence (P30291 291-575): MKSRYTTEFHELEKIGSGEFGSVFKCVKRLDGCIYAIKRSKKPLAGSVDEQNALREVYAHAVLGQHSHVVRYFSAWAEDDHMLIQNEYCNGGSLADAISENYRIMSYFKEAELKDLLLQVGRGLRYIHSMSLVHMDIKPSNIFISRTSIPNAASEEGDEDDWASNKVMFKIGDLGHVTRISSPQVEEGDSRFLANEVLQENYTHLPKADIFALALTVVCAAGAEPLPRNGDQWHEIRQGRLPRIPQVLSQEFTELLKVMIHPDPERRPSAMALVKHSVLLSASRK

For the molecule `C=CCn1c(=O)c2cnc(Nc3ccc(N4CCN(C)CC4)cc3)nc2n1-c1cccc(C(C)(C)O)n1` [AZD1775], the half-maximal inhibitory concentration (IC50) in series [1] (NCI-H1299, NCI-H1299 cells) amounted to 287 nM; in series [4] it was 389 nM. For the same molecule, the “Inh. (%) of Wee1 kinase enzyme activity” value in series [2] was found to be 97%. Further, in series [3] (setting [6]), the partial response was 10%. In addition, in series [3] (setting [6]), the “stable disease as the best response” value is 53%. Also, the response rate is recorded as 12% in series [3] (TP53 wild-type patients (n=33)) and 21% in series [3] (patients with TP53 mutation (n=19)). Further, in series [3] (alone or in combination with chemotherapy, at a certain dose), the safety and tolerability result is “safe and tolerable”.
`CN1CCN(c2ccc(Nc3ncc4c(n3)N3CCN=C3N(c3ccccc3Cl)C4=O)cc2)CC1` [Example 1, 6-(2-chlorophenyl)-2-((4-(4-methylpiperazin-1-yl)phenyl)amino)-8,9-dihydroimidazo[1,2-a]pyrimido[5,4-e]pyrimidin-5(6H)-one]: the IC50 in series [1] (NCI-H1299 cells) turned out to be 1590 nM; in series [4] it was 3580 nM. The molecule also showed a dissociation constant Kd in series [5] of 250 nM. Besides, in series [2], the “Inh. (%) of Wee1 kinase enzyme activity” value was 96%.
Regarding `CN1CCN(c2ccc(Nc3ncc4c(n3)N3CCN=C3N(c3c(F)cccc3Cl)C4=O)cc2)CC1` [Example 2, 6-(2-Chloro-6-fluorophenyl)-2-((4-(4-methylpiperazin-1-yl)phenyl)amino)-8,9-dihydroimidazo[1,2-a]pyrimido[5,4-e]pyrimidin-5(6H)-one], the concentration for half-maximal inhibition (IC50) in series [1] (NCI-H1299, NCI-H1299 cells) amounted to 782 nM; in series [4], 425 nM. The Kd in series [5] was determined as 34 nM. Moreover, the “Inh. (%) of Wee1 kinase enzyme activity” value in series [2] is given as 95%.

A word on the IC50: it is the concentration that inhibits the measured activity by half. One may read the Kd as a measure of binding affinity in units of concentration.
